Series [1] concerns the target Alpha-synuclein (Homo sapiens) (UniProt P37840). The series can be described thus: Induction of alpha-synuclein aggregation in PBS buffer assessed as transition of alpha-synuclein from natively unfolded monomer to cross-beta-sheet conformation after 330 hrs by CD spectroscopy.
Series [2] has the same target. Nature of the series: Induction of alpha-synuclein aggregation in PBS buffer assessed as fluorescence after 96 hrs by Thioflavin T fluorescence assay.
Series [3] is described as follows: Cytotoxicity against human SH-SY5Y cells overexpressing alpha-synuclein after 48 hrs by LDH assay. In kind it is cell-based. Particulars: read-out: LD50.
Series [4] addresses Alpha-synuclein (Homo sapiens) (UniProt P37840). Nature of the series: Induction of alpha-synuclein aggregation in PBS buffer assessed as formation of alpha-synuclein fibrils after 96 hrs by electron microscopy.
Series [5] shares this target. The series can be described thus: Induction of alpha-synuclein aggregation in PBS buffer assessed as alpha-synuclein monomer depletion after 48 hrs by size exclusion chromatography. On the technique in general: In gel filtration, larger molecules generally elute earlier.
Series [6] has the same target. Nature of the series: Induction of alpha-synuclein aggregation in PBS buffer assessed as fluorescence after 330 hrs by Thioflavin T fluorescence assay.
Series [7] shares this target. Nature of the series: Induction of alpha-synuclein aggregation in PBS buffer assessed as formation of alpha-synuclein fibrils after 48 hrs by electron microscopy.
Series [8] has the same target. The series can be described thus: Induction of alpha-synuclein aggregation in PBS buffer assessed as transition of alpha-synuclein from natively unfolded monomer to cross-beta-sheet conformation after 96 hrs by CD spectroscopy.
Series [9] shares this target. Nature of the series: Induction of alpha-synuclein aggregation in PBS buffer assessed as fluorescence after 72 hrs by Thioflavin T fluorescence assay.
For series [10] the target is unchanged. Nature of the series: Induction of alpha-synuclein aggregation in PBS buffer assessed as fluorescence after 48 hrs by Thioflavin T fluorescence assay.
The target is the same in series [11]. The series can be described thus: Induction of alpha-synuclein aggregation in PBS buffer assessed as alpha-synuclein monomer depletion after 96 hrs by size exclusion chromatography.
For series [12] the target is unchanged. The series can be described thus: Induction of alpha-synuclein aggregation in PBS buffer assessed as transition of alpha-synuclein from natively unfolded monomer to cross-beta-sheet conformation after 48 hrs by CD spectroscopy.
For series [13] the target is unchanged. The series can be described thus: Induction of alpha-synuclein aggregation in PBS buffer assessed as fluorescence after 44 to 305 hrs in presence of competitive Schiff-base inhibitor aminoguanidine by Thioflavin T fluorescence assay.
Series [14] can be described thus: Cytotoxicity against human SH-SY5Y cells overexpressing alpha-synuclein after 48 hrs by MTT assay. In kind it is cell-based. The note with it: read-out: LD50. A general note: Tetrazolium dyes change colour on reduction, which living cells bring about.
Series [15] relates to SH-SY5Y. The series can be described thus: Cytotoxicity against human SH-SY5Y cells overexpressing alpha-synuclein at 20 uM after 48 hrs by MTT assay. It counts as cell-based.
Series [16] has as its target Alpha-synuclein (Homo sapiens) (UniProt P37840). The series can be described thus: Induction of alpha-synuclein aggregation in PBS buffer assessed as alpha-synuclein monomer depletion after 72 hrs by size exclusion chromatography.
Series [17] shares this target. Nature of the series: Induction of alpha-synuclein aggregation in PBS buffer assessed as transition of alpha-synuclein from natively unfolded monomer to cross-beta-sheet conformation after 72 hrs by CD spectroscopy.
The test system of series [18] is SH-SY5Y. The series can be described thus: Cytotoxicity against human SH-SY5Y cells overexpressing alpha-synuclein at 20 uM after 48 hrs by LDH assay. It counts as cell-based.

The source made the active and inactive calls. The rule behind the calls is not given here.

In the case of `CC(C)CCC[C@@H](C)[C@H]1CC[C@H]2[C@H](CC(=O)O)[C@@H]([C@@]3(C)CC[C@H](O)CC3=O)CC[C@]12C`, the Activity in series [1] was 100%; in series [2] it was 410 a.u; in [5], 50%; in series [6], 500 a.u; in series [8], 60%; in series [9] it was 330 a.u. In addition, the Activity is 220 a.u in [10], 70% in series [11] and 40% in series [12]. Also, the CC50 at 48 h in series [3] and in series [14] was 55 µM throughout. The outcome in series [4], in [7] and in series [13] was Active.

As for `CC(C)CCC[C@@H](C)[C@H]1CC[C@H]2[C@@H]3CC=C4C[C@@H](O)CC[C@]4(C)[C@H]3CC[C@]12C` [CHOLESTEROL], the Activity entry in series [15] is “Non-toxic”; in series [1], 100%; in series [2] it was 30 a.u; in series [16] it was 19%; in series [17] it was 4%; in [5] it was 2%. For the same molecule, the Activity was 120 a.u in [6]; “Non-toxic” in series [18]; 4% in series [8]; 25 a.u in series [9]; 0 a.u in series [10]; 70% in [11]. Besides, the Activity in [12] amounted to 0%.

These data come from ChEMBL document CHEMBL1240308, “Elevated levels of oxidized cholesterol metabolites in Lewy body disease brains accelerate alpha-synuclein fibrilization” (Nat Chem Biol, 2006).
